Experimental data taken from patent publication US20220160652A1, “USE OF VITAMIN K IN COMBINATION WITH ANTICOAGULANTS” (KAYDENCE PHARMA AS, priority 2019, published 2022).

Columns and labels:
[1] = test system: VSMCs; assay: Hypoxia (CoCl2) induced oxidative stress in VSMCs (DCFDA); type: cell-based; details: 10 μM, after 50 μM CoCl2 for 19 hours
Method: This study was performed to determine whether intracellular oxidative stress in VSCMs is derived from mitochondrial dysfunction. To perform this study, VSMCs were incubated with cobalt chloride, a known stabilizer of HIF1a. Cobalt chloride binding to HIF1a prevents the degradation of HIF1a and thus results in a cellular hypoxia state. HIF1a has been implicated in cancer biology as well as a number of other pathophysiologies, specifically in areas of vascularization and angiogenesis, energy metabolism, cell survival, and tumor invasion. Under normal circumstances, after injury, HIF1a is degraded by the enzyme prolyl hydroxylase (PHD). The continued up-regulation of HIF1 a (mimicked by cobalt chloride) promotes tumor growth and metastasis through its role in initiating angiogenesis and regulating cellular metabolism to overcome hypoxia. Hypoxia promotes apoptosis in both normal and tumor cells. Additionally, hypoxia generates significant intracellular oxidative stress.
To perform the study, VSMCs (10,000 cells/well) were plated in a 96-well plate and left to adhere overnight. Next, the medium was changed to a medium supplemented with 50 μM CoCl2 for 19 hours. The next day, cells were washed and incubated for 1 hour with 20 μM DCFDA in the presence of a vehicle (solvent for CoCl2 and vitamin K2 (MK-7)/UQ10), 10 μM vitamin K2 (MK-7), or 10 μM UQ10 in medium. The medium was then changed to a medium supplemented with vehicle, vitamin K2 (MK-7)/UQ10, or CoCl2, and fluorescent was measured for 6 hours. Fluorescence intensity was normalized for cell count.

[2] = test system: Sprague-Dawley rats; assay: T-TAS thrombus formation in whole blood of treated Sprague-Dawley rats; type: in vivo, rat; details: added to dabigatran and to rivaroxaban
Method: This experiment was conducted in order to evaluate the effects of vitamin K2 (MK-7) on the anticoagulant activity of the new oral anticoagulants (NOAC) rivaroxaban and dabigatran using the T-TAS Total Thrombus-formation Analysis System. The T-TAS Total Thrombus-formation Analysis System is a microchip-based flow chamber system capable of evaluating whole-blood thrombogenicity. It is a useful tool in monitoring the efficacy of anticoagulants on thrombus formation and predicting the risk of bleeding complications. To perform the study, 45 wild-type male Sprague-Dawley and 45 transgenic male Ren-2 rats [TGR(mREN-2)27] at the age of 10-11 weeks at the beginning of the treatment period were purchased from animal facility IKEM-CEM Institute of Clinical and Experimental Medicine (Prague, Czech Republic). All animals in the experiment were housed in individually ventilated cages (2-3 rats per cage) and kept in the animal rooms of JCET at a relative humidity of 55±10%, a temperature of 22±2 ° C., and a light cycle of 7 AM to 7 PM. The rats had free access to food and water. After delivery, animals were randomly divided into 10 experimental groups (5 or 10 rats per group), as indicated below in Table 1. Four days before the start of the treatment, the first part of animals' body weight and food intake was measured in selected representative three cages (rats n=9) to calculate the appropriate amount of tested compounds required for addition to the diet to obtain the dosing indicated in Table 1. It was estimated that food intake was approximately 30 g of chow per rat per day. […] The body mass of the rats was measured at the beginning and at the end of treatment. At the beginning and at the end of treatment, the food intake per day was measured in representative group of animals to monitor the daily dosing of tested compounds (per kg of body mass). The thrombus formation in vitro was measured in whole blood using a microchip-based flow chamber system according to manufacturers' protocol (Total Thrombus-formation Analyser System, T-TAS; Fujimori Kogyo Co., Ltd., Tokyo, Japan). […]

## CC(C)=CCC/C(C)=C/CC/C(C)=C/CC/C(C)=C/CC/C(C)=C/CC/C(C)=C/CC/C(C)=C/CC1=C(C)C(=O)c2ccccc2C1=O [vitamin K2 (MK-7)]
[1]
  hypoxia induced oxidative stress (counteraction): seems to counteract hypoxia induced oxidative stress
[2]
  formation of a clot (AUC) on addition of vitamin K2 (MK-7): did not prevent the formation of a clot
  increase of occlusion Time (OT) on addition of vitamin K2 (MK-7): 5-7%
